The source of these data is publication PMC6600393, “Synthesis and Cytostatic Effect of 3’-deoxy-3’-C-Sulfanylmethyl Nucleoside Derivatives with D-xylo Configuration” (Molecules, 2019).

One series has as its system SCC. Details: method as in PMID 20947470. The conditions noted are these: positive control; ref [36]; cited from earlier work.
For series [1], the system named is HaCaT cells. Nature of the series: Time-lapse video-microscopy: mother cell size, HaCaT. Type of series: cell-based, human. On the procedure:
Dynamic functional and morphological effects of compound 10 was investigated via time-lapse (1 frame/min) videomicroscopy under standard cell-breeding conditions. Low intensity, near-infrared (NIR) 940 nm illumination was used, for reduced phototoxicity. Parallel experiments were done in the same CO2 incubator, using two custom-built inverted microscope equipped with sensitive charge-coupled device (CCD) sensors. […] Image sequences were processed and quantitatively analyzed using NIH ImageJ open-source software-bundle. Cell size, cellular generation time, and cell growth of HaCaT and SCC cells were analyzed. Time-lapse video-microscopy record about the effect of 10 and DMSO control on HaCaT and SCC cell lines are available in Supplementary Materials. […]
Mother cells size measurement: • Opening the image sequence in 8-bit format. • Stack Deflicker: The Stack Deflicker calculates the average grey value for each frame and normalizes all frames so that they have the same average grey level as a specified frame of the stack. […] If a region of the stack is selected the average frame intensity will be calculated from this region. • Changing the brightness/contrast, if it is neccesary. • Subtrack background: Removes smooth continuous backgrounds from gels and other images. […]

The subject of series [2] is SCC-VII (mouse squamous carcinoma) cell line. Put plainly: MTT cell viability assay on SCC-VII cells. Type of series: cell-based. The conditions noted are these: for SI (selectivity index): HaCaT IC50/SCC IC50; for IC50: Mus musculus, 48 h. How it is done: (§1) For the investigation of the cytotoxic effect of nucleoside analogues we used healthy human keratinocyte (HaCaT) and tumorous squamous carcinoma SCC-VII cell lines. In the experiments, a standard citotoxicity assay, the MTT assay, was used in a 96-well plate. Importantly, different cell numbers were used in the case of the two different cell lines. The HaCaT cells were seeded 10^4/well concentration while the SCC-VII cells were seeded 5000/well concentration on the plate. In both cases the cells were treated with the nucleoside analogues at ~50% confluence.
SCC-VII is a carcinoma tumor that originally arose in the abdominal wall of C3H mice in Dr. Herman Suit’s laboratory at Harvard University, Boston, Massachusetts. SCC VII cells were grown in Dulbecco’s Modified Eagle’s Medium Nutrient Mixture (DMEM-HAM’S F12) (Sigma-Aldrich) supplemented with 2 mM L-glutamine, 23 mM NaHCO3, 100 U/mL penicillin, 100 U/mL streptomycin 1% non-essential amino acids and 10% fetal bovine serum.
(§2) Cell cultures had been kept under the same conditions during the experiments. Cells were stored at 37 °C, 95% humidity, and 5% CO2 in an incubator. During the MTT-assay, different starter cell number was used because of the cell cycle differences; HaCaT was started with 10.000/well meanwhile SCC VII with 5000/well. After passage, 24 h was assured for the cells to the adhesion. Then incubated with the compounds for 48 h. The experiments were performed in 96 well plates.
(§3) For the dilution of different concentrations of nucleoside analogues were prepared with DMSO 1% (v/v) and DMEM / DMEM-F12/Ham’s F12 cell culture medium.
(§4) After three days of incubation in the cell culture flask, cells were trypsinised into single cell suspensions. Aliquots (200 μL) of each cell suspension were placed in wells of 96-well-plates (Biocenter, Szeged, Hungary). Preliminary tests were conducted with cell numbers 5000 (SCC-VII) and 10,000 (HaCaT) per well. We have been tested five concentrations of each nucleoside analogues (20-10-5-2.5-1.25 µg/mL). The nucleoside analogues were dissolved in DMSO (1 v/v%) and DMEM/ DMEM-F12/Ham’s F12 were added to the wells to produce the required concentrations and the cells were similarly incubated for a further 48 h.
(§5) MTT (Sigma Aldrich, Budapest, Hungary) solution (0.5 mg/mL in PBS) 100 µL was added to each well. The plates were incubated for 1–2 h at 37 ^◦C, the wells aspirated, and MTT formazan extracted with 100 µL of DMSO aided by gentle agitation on a shaker. After 10 min at room temperature, the absorbances were read at 570 nm by an automatic plate reader (WALLAC Victor 2 1420 spectrophotometer), the instrument having been blanked beforehand on a row to which cells had not been added. Percentage viability (respiratory competence) of the population of cells in each well was expressed as: (Absorbance of treated cells/Absorbance of control cells) × 100. IC50 values of the nucleoside analogues were determined by Graphpad.
On the technique in general: Formazan colour is commonly taken as a measure of viable cells.

Series [3] has as its system HaCaT (human keratinocyte) cell line. Put plainly: MTT cell viability assay on HaCaT cells. Type of series: cell-based. The conditions noted are these: for IC50: Homo sapiens, HaCaT, 48 h. How it is done: as §1
The HaCaT cell line was derived from human skin, the cells spontaneously transformed in vitro during long time incubation. Cells were cultured in DMEM medium (Biocenter, Szeged, Hungary) containing 10% fetal bovine serum (FBS, Hyclon, Logan, UT) and 1% antibiotic-antimycotic mix (Penicillin–Streptomycin–Neomycin).
as §2, §3, §4, §5

The test system of series [4] is SCC cells. Put plainly: DAPI fluorescent microscopy of nucleus morphology, SCC. Type of series: cell-based, mouse. The following applies: 17.0 µM, 48 h, vs DMSO control. How it is done:
(§6) In our experiments 4’,6-diamidino-2-phenylindole (DAPI) fluorescent DNA dye has been used for studying the cell nucleus morphology as an indicator of genotoxicity. The HaCaT and SCC cells were treated with DMSO and compound 10, fixed and stained with DAPI, then examined with fluorescent microscopy (Figure 7 and Figure 8).
(§7) For fluorescence staining, cells were breeded in the ibidi microscope slide chamber. The sample preparation process was similar to that of TLS studies, except that after 48 h the samples were fixed with PFA and washed with PBS and left to dry at room temperature overnight. DAPI dye was used for fluorescencnt labbelling of A-T rich regions of DNA.
(§8) Dehydrated slides containing fixated cells were mounted in 35 μL DAPI-Antifade Medium under 24 × […] coverslips. Fluorescence of DAPI (4′,6-diamidino-2-phenylindole) was monitored by fluorescence microscopy (Carl Zeiss Compound Universal Microscope III RS).

In series [5] the test system is HaCaT cells. Nature of the series: Time-lapse video-microscopy: generation time, HaCaT. Type of series: cell-based, human. How it is done: (§9) Dynamic functional and morphological effects of compound 10 was investigated via time-lapse (1 frame/min) videomicroscopy under standard cell-breeding conditions. Low intensity, near-infrared (NIR) 940 nm illumination was used, for reduced phototoxicity. Parallel experiments were done in the same CO2 incubator, using two custom-built inverted microscope equipped with sensitive charge-coupled device (CCD) sensors. […] Image sequences were processed and quantitatively analyzed using NIH ImageJ open-source software-bundle. Cell size, cellular generation time, and cell growth of HaCaT and SCC cells were analyzed. Time-lapse video-microscopy record about the effect of 10 and DMSO control on HaCaT and SCC cell lines are available in Supplementary Materials.
For the investigation of the effect of compound 10 on cell-cycle, cellular generation times were measured from time-lapse image sequences.
In LTS video-microscopy studies, ~500.000/350.000 starting cell numbers (T-25 cell culture flask) had been used. Cell cultures had been treated with compound 10 using the IC50 concentration corresponding to the SCC VII.
TLS system architecture: Using the TLS system, various parameters had been tested. Control, DMSO control, and IC50 concentration of compound 10 compared to the above. Based on literature data, 1% (v/v) is the amount that is tolerated even without significant change in cells. […]

For series [6], the system named is HaCaT cells. Put plainly: DAPI fluorescent microscopy of nucleus morphology, HaCaT. Type of series: cell-based, human. The conditions noted are these: 17.0 µM, 48 h, vs DMSO control. How it is done: as §6, §7, §8
Series [7] deals with SCC cells. Nature of the series: Time-lapse video-microscopy: mother cell size, SCC. Type of series: cell-based, mouse. How it is done:
as §9
Each cell line was treated with 17.0 µM solution of compound 10, dissolved in 1% (v/v) DMSO and diluted with cell culture media before application. Then, 1% (v/v) DMSO was used as control. […]
Mother cells size measurement: • Opening the image sequence in 8-bit format. • Stack Deflicker: The Stack Deflicker calculates the average grey value for each frame and normalizes all frames so that they have the same average grey level as a specified frame of the stack. […] If a region of the stack is selected the average frame intensity will be calculated from this region. • Changing the brightness/contrast, if it is neccesary. • Subtrack background: Removes smooth continuous backgrounds from gels and other images. […] A ball of given radius is rolled over the bottom side of this surface; the hull of the volume reachable by the ball is the background to be subtracted. • Treshold: Use this tool to automatically or interactively set lower and upper threshold values, segmenting grayscale images into features of interest and background. • Divided cells were selected on the binary image sequence based on their circularity determined by area/perimeter ratio. • Bigger pre-division mother cells were separated from smaller post-division daughter cells. • Pixel size was calibrated with Burker chamber. • Area calculation from pixel^2 to µm^2.

“Also recorded” adds a separate entry of the source.

On to `O=c1[nH]cc(F)c(=O)[nH]1` [Compound 5-FU, 5-fluorouracil], for which, in the series on SCC, the IC50 (in general, the concentration that inhibits the measured activity by half) was 60.7 ± 8.45 µM.
On to `CCCCSC[C@@H]1[C@@H](O[Si](C)(C)C(C)(C)C)[C@H](n2cc(C)c(=O)[nH]c2=O)O[C@@H]1CO[Si](C)(C)C(C)(C)C` [Compound 10, 1-[3’-Deoxy-3’-C-(n-butylsulfanylmethyl)-2’,5’-di-O-(tert-butyldimethylsilyl)-β-D-xylofuranosyl]-thymine], for which the “mother cell size-reduction vs. DMSO” value in the series on HaCaT cells [1] (17.0 µM) turned out to be 9%. For the same compound, the “Treated Cells Size (mother cells)” value in the series on HaCaT cells [1] (17.0 µM compound 10, n = 15) is listed as 21.60 ± 1.93 µm^2; in the series with SCC cells [7] (SCC, 17.0 µM compound 10, n = 15), 21.44 ± 1.42 µm^2. In addition, the “SI (selectivity index)” value in series [2] came out at 1.64. In addition, the half-maximal inhibitory concentration (IC50) is 17 ± 1.55 µM in series [2] and 27.9 ± 1.85 µM in series [3]. Also, in the series with SCC cells [4], the “nucleus morphology (DAPI), genotoxicity” value is recorded as “genotoxic effect”. In the series on HaCaT cells [5] (17.0 µM), the “Treated/DMSO Difference (generation time)” value is on record as 20.8%. Further, in the series on HaCaT cells [5] (17.0 µM compound 10, n = 15), the “Treated Cells Gen. Time” value was determined as 21.67 ± 1.01 h. Moreover, in the series with HaCaT cells [6], the “nucleus morphology (DAPI)” value is “no apparent difference”. Further, the “overall size change difference between the two cell lines” value in the series with SCC cells [7] (HaCaT vs SCC mother cells, 17.0 µM) is given as ~ 21%. Besides, the “Treated/DMSO Difference (mother cell size)” value with SCC cells [7] (SCC, 17.0 µM, (treated cells size/DMSO control cell size)*100-100) worked out at 12.8%.
Consider `CCCCSC[C@@H]1[C@@H](O[Si](C)(C)C(C)(C)C)[C@H](n2ccc(=O)[nH]c2=O)O[C@@H]1CO[Si](C)(C)C(C)(C)C` [Compound 18, 1-[3’-Deoxy-3’-C-(n-butylsulfanylmethyl)-2’,5’-di-O-(tert-butyldimethylsilyl)-β-D-xylofuranosyl]-uracil], for which, in series [2], the “SI (selectivity index)” value was found to be 1.32 and it took 10.9 ± 0.18 µM to reach half-maximal inhibition (IC50). This compound also had a concentration for half-maximal inhibition (IC50) in series [3] of 14.4 ± 1.59 µM.
With `CCSC[C@@H]1[C@@H](O)[C@H](n2cc(C)c(=O)[nH]c2=O)O[C@@H]1CO` [Compound 19, 1-[3’-Deoxy-3’-C-(n-ethylsulfanylmethyl)-β-D-xylofuranosyl]-thymine], the “SCC IC50” value in series [2] (MTT, 48 h incubation, 5000 cells/well, '-' = no cytotoxicity at 20 µg/mL) is “did not show any cytotoxic activity; also recorded: no activity”. For the same compound, the half-inhibitory concentration (IC50) in series [2] and in series [3] was over 20 µg/mL throughout. For the same compound, the “HaCaT IC50” value in series [3] (MTT, 48 h incubation, 10,000 cells/well, '-' = no cytotoxicity at 20 µg/mL) is recorded as “did not show any cytotoxic activity; also recorded: no activity”.
In the case of `CN(Cc1cnc2nc(N)nc(N)c2n1)c1ccc(C(=O)N[C@@H](CCC(=O)O)C(=O)O)cc1` [Methotrexate, reference compound], the half-maximal inhibitory concentration (IC50) was found to be 216 ± 2.33 µM in series [2] and 290.4 ± 2.76 µM in series [3].
